Target: T1, CRF1 receptors (Homo sapiens, UniProt P34998)
T1 construct: endogenous in cells; host or cells: IMR-32 cells, transformed with 2.5 µM 5'-bromo-2'-deoxyuridine for 10 days; membrane preparation
T1 sequence (P34998 24-415): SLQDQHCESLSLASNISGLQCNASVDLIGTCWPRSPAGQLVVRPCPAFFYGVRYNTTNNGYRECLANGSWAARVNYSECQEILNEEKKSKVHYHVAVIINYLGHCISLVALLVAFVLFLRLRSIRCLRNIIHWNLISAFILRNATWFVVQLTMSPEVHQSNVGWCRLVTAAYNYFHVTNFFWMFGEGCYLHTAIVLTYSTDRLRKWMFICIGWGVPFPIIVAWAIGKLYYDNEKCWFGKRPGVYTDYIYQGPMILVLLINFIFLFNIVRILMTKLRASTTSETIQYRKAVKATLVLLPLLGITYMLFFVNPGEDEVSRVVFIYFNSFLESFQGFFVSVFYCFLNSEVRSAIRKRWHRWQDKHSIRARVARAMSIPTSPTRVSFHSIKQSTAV
Experiment: CRF1 receptor radioligand binding assay ([125I]-oCRF competition, IMR-32 cell membranes)
Conditions: IMR-32 cell membranes, [125I]-oCRF 100 pM; read-out: Ki (CRF-1R)
In short: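 Buffer: Tris pH 7.2 with MgCl2, BSA, Triton X-100, aprotinin, leupeptin; reaction stopped with ice-cold wash and filtered. Nonspecific binding set with 10 μM oCRF.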

Ki [µM]	SMILES
< 0.1	CCCN(CC1CC1)C(=O)c1c(C)nc2n(-c3c(C)cc(C)cc3C)c(Cl)cn12 [Example 283, 6-Chloro-2-methyl-7-(2,4,6-trimethyl-phenyl)-7H-imidazo[1,2-a]imidazole-3-carboxylic acid cyclopropylmethyl-propyl-amide]
< 0.1	CCCN(Cc1c(C)nc2n(-c3c(C)cc(C)cc3C)c(Cl)cn12)CC1CC1 [Example 284, [6-Chloro-2-methyl-7-(2,4,6-trimethyl-phenyl)-7H-imidazo[1,2-a]imidazol-3-ylmethyl]-cyclopropylmethyl-propyl-amine]
< 0.1	CCCN(CC1CC1)C(=O)c1c(CC)nc2n(-c3c(C)cc(C)cc3C)c(Cl)cn12 [Example 290, 6-Chloro-2-ethyl-7-(2,4,6-trimethylphenyl)-7H-imidazo[1,2-a]imidazole-3-carboxylic acid N-cyclopropylmethyl-N-propylamide]
< 1	CCCCN(CC)Cc1c(CC)nc2n(-c3c(C)cc(C)cc3C)c(Cl)cn12 [Example 294, 3-[(N-Butyl-N-ethylamino)methyl]-6-chloro-2-ethyl-7-(2,4,6-trimethylphenyl)-7H-imidazo[1,2-a]imidazole]
< 0.01	CCc1nc2n(-c3c(C)cc(C)cc3C)c(Cl)cn2c1C(=O)N(CC1CC1)CC(F)(F)F [Example 296, 6-Chloro-2-ethyl-7-(2,4,6-trimethylphenyl)-7H-imidazo[1,2-a]imidazole-3-carboxylic acid N-cyclopropylmethyl-N-(2,2,2-trifluoroethyl)amide]
< 0.01	CCc1nc2n(-c3c(C)cc(C)cc3C)c(Cl)cn2c1C(=O)N(CC)CC1CC1 [Example 298, 6-Chloro-2-ethyl-7-(2,4,6-trimethylphenyl)-7H-imidazo[1,2-a]imidazole-3-carboxylic acid N-cyclopropylmethyl-N-ethylamide]
< 0.1	CCc1nc2n(-c3c(C)cc(C)cc3C)c(Cl)cn2c1CN(CC)CC1CC1 [Example 299, 3-[(N-Cyclopropylmethyl-N-ethylamino)methyl]-6-chloro-2-ethyl-7-(2,4,6-trimethylphenyl)-7H-imidazo[1,2-a]imidazole]
< 0.1	CCCN(CC1CC1)C(=O)c1c(C(F)(F)F)nc2n(-c3c(C)cc(C)cc3C)c(Cl)cn12 [Example 302, 6-Chloro-2-trifluoromethyl-7-(2,4,6-trimethyl-phenyl)-7H-imidazo[1,2-a]imidazole-3-carboxylic acid cyclopropylmethyl-propyl-amide]
< 0.01	CCCN(Cc1c(C(F)(F)F)nc2n(-c3c(C)cc(C)cc3C)c(Cl)cn12)CC1CC1 [Example 303, [6-Chloro-2-trifluoromethyl-7-(2,4,6-trimethyl-phenyl)-7H-imidazo[1,2-a]imidazol-3-ylmethyl]-cyclopropylmethyl-propyl-amine]
< 0.01	Cc1cc(C)c(-n2c(Cl)cn3c(CN(CC4CC4)CC(F)(F)F)c(C(F)(F)F)nc23)c(C)c1 [Example 304, [6-Chloro-2-trifluoromethyl-7-(2,4,6-trimethyl-phenyl)-7H-imidazo[1,2-a]imidazol-3-ylmethyl]-cyclopropylmethyl-(2,2,2-trifluoro-ethyl)-amine]

Second part, the molecule before the results:

SMILES	Ki [µM]
C=CCN(CCC)Cc1c(CC)nc2n(-c3c(C)cc(C)cc3C)c3ncccc3n12 [Example 249, Allyl-[2-ethyl-8-(2,4,6-trimethyl-phenyl)-8H-1,3a,7,8-tetraaza-cyclopenta[α]inden-3-ylmethyl]-propyl-amine]	< 0.1
CCc1nc2n(-c3c(C)cc(C)cc3C)c3ncccc3n2c1CN(CC)CC1CC1 [Example 250, Cyclopropylmethyl-ethyl-[2-ethyl-8-(2,4,6-trimethyl-phenyl)-8H-1,3a,7,8-tetraaza-cyclopenta[α]inden-3-ylmethyl]-amine]	< 1
C=CCN(CC=C)Cc1c(CC)nc2n(-c3c(C)cc(C)cc3C)c3ncccc3n12 [Example 251, Diallyl-[2-ethyl-8-(2,4,6-trimethyl-phenyl)-8H-1,3a,7,8-tetraaza-cyclopenta[α]inden-3-ylmethyl]-amine]	< 1
CCCN(CCC1CC1)Cc1c(CC)nc2n(-c3c(C)cc(C)cc3C)c3ncccc3n12 [Example 252, (2-Cyclopropyl-ethyl)-[2-ethyl-8-(2,4,6-trimethyl-phenyl)-8H-1,3a,7,8-tetraaza-cyclopenta[α]inden-3-ylmethyl]-propyl-amine]	< 1
CCC(CC)NCc1c(C)nc2n(-c3c(C)cc(C)cc3Cl)c3ncccc3n12 [Example 279, [8-(2-Chloro-4,6-dimethyl-phenyl)-2-methyl-8H-1,3a,7,8-tetraaza-cyclopenta[α]inden-3-ylmethyl]-(1-ethyl-propyl)-amine]	< 10
CCCN(CC1CC1)C(=O)c1c(CC)nc2n(-c3ccc(C(C)C)cc3Br)c(Cl)cn12 [Example 285, 6-Chloro-2-ethyl-7-(2-bromo-4-isopropylphenyl)-7H-imidazo[1,2-a]imidazole-3-carboxylic acid N-cyclopropylmethyl-N-propylamide]	< 1
CCc1nc2n(-c3ccc(Cl)cc3Cl)c(Cl)cn2c1C(=O)N(CC1CC1)CC(F)(F)F [Example 286, 6-Chloro-2-ethyl-7-(2,4-dichlorophenyl)-7H-imidazo[1,2-a]imidazole-3-carboxylic acid N-cyclopropylmethyl-N-(2,2,2-trifluoroethyl)amide]	< 0.01
CCCN(CCC)C(=O)c1c(CC)nc2n(-c3ccc(Cl)cc3Cl)c(Cl)cn12 [Example 287, 6-Chloro-2-ethyl-7-(2,4-dichlorophenyl)-7H-imidazo[1,2-a]imidazole-3-carboxylic acid N,N-dipropylamide]	< 0.01
CCCN(CCC)Cc1c(CC)nc2n(-c3ccc(Cl)cc3Cl)c(Cl)cn12 [Example 288, 3-[(N,N-Dipropylamino)methyl]-6-chloro-2-ethyl-7-(2,4-diclorophenyl)-7H-imidazo[1,2-a]imidazole]	< 0.1
CCc1nc2n(-c3ccc(Cl)cc3Cl)c(Cl)cn2c1CN(CC1CC1)CC(F)(F)F [Example 289, 3-[(N-Cyclopropylmethyl-N-(2,2,2-trifluoroethyl)amino)methyl]-6-chloro-2-ethyl-7-(2,4-diclorophenyl)-7H-imidazo[1,2-a]imidazole]	< 0.1
CCCCN(CC)C(=O)c1c(CC)nc2n(-c3c(C)cc(C)cc3C)c(Cl)cn12 [Example 291, 6-Chloro-2-ethyl-7-(2,4,6-trimethylphenyl)-7H-imidazo[1,2-a]imidazole-3-carboxylic acid N-butyl-N-ethylamide]	< 0.1
CCCN(CCC)C(=O)c1c(CC)nc2n(-c3c(C)cc(C)cc3C)c(Cl)cn12 [Example 292, 6-Chloro-2-ethyl-7-(2,4,6-trimethylphenyl)-7H-imidazo[1,2-a]imidazole-3-carboxylic acid N,N-dipropylamide]	< 0.1
CCc1nc2n(-c3c(C)cc(C)cc3C)c(Cl)cn2c1C(=O)N(CC)CC [Example 293, 6-Chloro-2-ethyl-7-(2,4,6-trimethylphenyl)-7H-imidazo[1,2-a]imidazole-3-carboxylic acid N,N-diethylamide]	< 1
C=CCN(CC=C)C(=O)c1c(CC)nc2n(-c3c(C)cc(C)cc3C)c(Cl)cn12 [Example 295, 6-Chloro-2-ethyl-7-(2,4,6-trimethylphenyl)-7H-imidazo[1,2-a]imidazole-3-carboxylic acid N,N-diallylamide]	< 1
CCc1nc2n(-c3c(C)cc(C)cc3C)c(Cl)cn2c1C(=O)N(CC)Cc1ccncc1 [Example 297, 6-Chloro-2-ethyl-7-(2,4,6-trimethylphenyl)-7H-imidazo[1,2-a]imidazole-3-carboxylic acid N-ethyl-N-(pyridin-4-yl)methylamide]	< 1
CCc1nc2n(-c3c(C)cc(C)cc3C)c(Cl)cn2c1C(=O)N1CC(C)CC(C)C1 (stereo not shown) [Example 300]	< 0.1
CCCN(CC1CC1)C(=O)c1c(C)nc2n1CC(=O)N2c1c(C)cc(C)cc1C [Example 301, 2-Methyl-6-oxo-7-(2,4,6-trimethyl-phenyl)-6,7-dihydro-5H-imidazo[1,2-a]imidazole-3-carboxylic acid cyclopropylmethyl-propyl-amide]	< 1
Cc1cc(C)c(-n2c(Cl)cn3c(CN4CC=CCC4)c(C(F)(F)F)nc23)c(C)c1 [Example 305, 2-Chloro-5-(3,6-dihydro-2H-pyridin-1-ylmethyl)-6-trifluoromethyl-1-(2,4,6-trimethyl-phenyl)-1H-imidazo[1,2-a]imidazole]	< 1
Cc1cc(C)c(-n2c(Cl)cn3c(CN4CCSCC4)c(C(F)(F)F)nc23)c(C)c1 [Example 306, 2-Chloro-5-thiomorpholin-4-ylmethyl-6-trifluoromethyl-1-(2,4,6-trimethyl-phenyl)-1H-imidazo[1,2-a]imidazole]	< 1
Cc1cc(C)c(-n2c(Cl)cn3c(CN(C)Cc4ccccc4)c(C(F)(F)F)nc23)c(C)c1 [Example 307, Benzyl-[6-chloro-2-trifluoromethyl-7-(2,4,6-trimethyl-phenyl)-7H-imidazo[1,2-a]imidazol-3-ylmethyl]-methyl-amine]	< 1
Cc1cc(C)c(-n2c(Cl)cn3c(CN(C)CCc4ccccc4)c(C(F)(F)F)nc23)c(C)c1 [Example 308, [6-Chloro-2-trifluoromethyl-7-(2,4,6-trimethyl-phenyl)-7H-imidazo[1,2-a]imidazol-3-ylmethyl]-methyl-phenethyl-amine]	< 1

Source: patent US7125990B2, “Imidazolyl derivatives as corticotropin releasing factor inhibitors” (Bristol-Myers Squibb COmpany, priority 2001, dated 2006)
